According to ChEMBL document CHEMBL3758169, “4-Aminoindazolyl-dihydrofuro[3,4-d]pyrimidines as non-covalent inhibitors of mutant epidermal growth factor receptor tyrosine kinase” (Bioorg Med Chem Lett, 2016):

Key:
[1] = biological target: Phosphorylase b kinase gamma catalytic chain, skeletal muscle/heart isoform (Homo sapiens) (UniProt Q16816); assay: Inhibition of PHKgamma1 (unknown origin) at 100 nM
[2] = biological target: G protein-coupled receptor kinase 6 (Homo sapiens) (UniProt P43250); assay: Inhibition of GRK6 (unknown origin) at 100 nM
Homo sapiens = species: Homo sapiens; assay: Inhibition of SRM (unknown origin) at 100 nM
[3] = biological target: Aurora kinase A (Homo sapiens) (UniProt O14965); assay: Inhibition of Aurora A (unknown origin) at 100 nM
[4] = biological target: Protein kinase C iota type (Homo sapiens) (UniProt P41743); assay: Inhibition of PKCiota (unknown origin) at 100 nM
[5] = biological target: Phosphatidylinositol 4-kinase beta (Homo sapiens) (UniProt Q9UBF8); assay: Inhibition of PI4Kb (unknown origin) at 100 nM
[6] = biological target: Phosphatidylinositol 4-phosphate 3-kinase C2 domain-containing subunit alpha (Homo sapiens) (UniProt O00443); assay: Inhibition of PI3KC2A (unknown origin) at 100 nM
[7] = biological target: Interleukin-1 receptor-associated kinase 1 (Homo sapiens) (UniProt P51617); assay: Inhibition of IRAK1 (unknown origin) at 100 nM
[8] = biological target: Mitogen-activated protein kinase kinase kinase 2 (Homo sapiens) (UniProt Q9Y2U5); assay: Inhibition of MEKK2 (unknown origin) at 100 nM
[9] = biological target: Calcium/calmodulin-dependent protein kinase kinase 1 (Homo sapiens) (UniProt Q8N5S9); assay: Inhibition of CaMKK1 (unknown origin) at 100 nM
[10] = biological target: Ephrin type-A receptor 4 (Homo sapiens) (UniProt P54764); assay: Inhibition of EPHA4 (unknown origin) at 100 nM
[11] = biological target: Ephrin type-A receptor 7 (Homo sapiens) (UniProt Q15375); assay: Inhibition of EPHA7 (unknown origin) at 100 nM
[12] = biological target: MAP/microtubule affinity-regulating kinase 4 (Homo sapiens) (UniProt Q96L34); assay: Inhibition of MARK4 (unknown origin) at 100 nM
[13] = biological target: Serine/threonine-protein kinase haspin (Homo sapiens) (UniProt Q8TF76); assay: Inhibition of Haspin (unknown origin) at 100 nM
[14] = biological target: Ephrin type-A receptor 5 (Homo sapiens) (UniProt P54756); assay: Inhibition of EPHA5 (unknown origin) at 100 nM
[15] = biological target: Serine/threonine-protein kinase TAO3 (Homo sapiens) (UniProt Q9H2K8); assay: Inhibition of TAO3 (unknown origin) at 100 nM
[16] = biological target: Serine/threonine-protein kinase Nek7 (Homo sapiens) (UniProt Q8TDX7); assay: Inhibition of NEK7 (unknown origin) at 100 nM
[17] = biological target: RAC-beta serine/threonine-protein kinase (Homo sapiens) (UniProt P31751); assay: Inhibition of AKT2 (unknown origin) at 100 nM
[18] = biological target: cGMP-dependent protein kinase 1 (Homo sapiens) (UniProt Q13976); assay: Inhibition of PKG1alpha (unknown origin) at 100 nM
[19] = biological target: Serine/threonine-protein kinase Nek2 (Homo sapiens) (UniProt P51955); assay: Inhibition of NEK2 (unknown origin) at 100 nM
[20] = biological target: Dual specificity mitogen-activated protein kinase kinase 6 (Homo sapiens) (UniProt P52564); assay: Inhibition of MKK6 (unknown origin) at 100 nM
[21] = biological target: Aurora kinase C (Homo sapiens) (UniProt Q9UQB9); assay: Inhibition of Aurora C (unknown origin) at 100 nM
[22] = biological target: CDK9/cyclin T1 (Homo sapiens) (UniProt O60563+P50750); assay: Inhibition of CDK9/cyclinT1 (unknown origin) at 100 nM; assay type: protein-complex assay
[23] = biological target: Fibroblast growth factor receptor 2 (Homo sapiens) (UniProt P21802); assay: Inhibition of FGFR2 (unknown origin) at 100 nM
[24] = biological target: Dual specificity tyrosine-phosphorylation-regulated kinase 1B (Homo sapiens) (UniProt Q9Y463); assay: Inhibition of DYRK1B (unknown origin) at 100 nM
[25] = biological target: Epithelial discoidin domain-containing receptor 1 (Homo sapiens) (UniProt Q08345); assay: Inhibition of DDR1 (unknown origin) at 100 nM
[26] = biological target: Homeodomain-interacting protein kinase 2 (Homo sapiens) (UniProt Q9H2X6); assay: Inhibition of HIPK2 (unknown origin) at 100 nM
[27] = biological target: 3-phosphoinositide-dependent protein kinase 1 (Homo sapiens) (UniProt O15530); assay: Inhibition of PDK1 (unknown origin) at 100 nM
[28] = biological target: Casein kinase I isoform epsilon (Homo sapiens) (UniProt P49674); assay: Inhibition of CK1epsilon1 (unknown origin) at 100 nM
[29] = biological target: CDK9/Cyclin K (Homo sapiens) (UniProt P50750+O75909); assay: Inhibition of CDK9/cyclinK (unknown origin) at 100 nM; assay type: protein-complex assay
[30] = biological target: MAP kinase-interacting serine/threonine-protein kinase 1 (Homo sapiens) (UniProt Q9BUB5); assay: Inhibition of MKNK1 (unknown origin) at 100 nM
[31] = biological target: Activated CDC42 kinase 1 (Homo sapiens) (UniProt Q07912); assay: Inhibition of TNK2 (unknown origin) at 100 nM
[32] = system: Mast/stem cell growth factor receptor Kit (Homo sapiens), P10721 [V654A]; assay: Inhibition of KIT V654A mutant (unknown origin) at 100 nM
[33] = biological target: Tyrosine-protein kinase receptor UFO (Homo sapiens) (UniProt P30530); assay: Inhibition of AXL (unknown origin) at 100 nM
[34] = biological target: Mitogen-activated protein kinase 11 (Homo sapiens) (UniProt Q15759); assay: Inhibition of p38beta(unknown origin) at 100 nM
[35] = biological target: Death-associated protein kinase 1 (Homo sapiens) (UniProt P53355); assay: Inhibition of DAPK1 (unknown origin) at 100 nM
[36] = biological target: Serine/threonine-protein kinase 33 (Homo sapiens) (UniProt Q9BYT3); assay: Inhibition of STK33 (unknown origin) at 100 nM
[37] = biological target: Beta-adrenergic receptor kinase 1 (Homo sapiens) (UniProt P25098); assay: Inhibition of GRK2 (unknown origin) at 100 nM
[38] = biological target: Serine/threonine-protein kinase MARK1 (Homo sapiens) (UniProt Q9P0L2); assay: Inhibition of MARK1 (unknown origin) at 100 nM
[39] = biological target: Mitogen-activated protein kinase 13 (Homo sapiens) (UniProt O15264); assay: Inhibition of p38delta(unknown origin) at 100 nM
[40] = system: Platelet-derived growth factor receptor alpha (Homo sapiens), P16234 [T674I]; assay: Inhibition of PDGFRalpha T674I mutant (unknown origin) at 100 nM
[41] = biological target: Mitogen-activated protein kinase 3 (Homo sapiens) (UniProt P27361); assay: Inhibition of ERK1 (unknown origin) at 100 nM
[42] = biological target: Serine/threonine-protein kinase D2 (Homo sapiens) (UniProt Q9BZL6); assay: Inhibition of PKD2 (unknown origin) at 100 nM

Chain of Activated CDC42 kinase 1 (Homo sapiens) (Q07912 whole entry, looked up): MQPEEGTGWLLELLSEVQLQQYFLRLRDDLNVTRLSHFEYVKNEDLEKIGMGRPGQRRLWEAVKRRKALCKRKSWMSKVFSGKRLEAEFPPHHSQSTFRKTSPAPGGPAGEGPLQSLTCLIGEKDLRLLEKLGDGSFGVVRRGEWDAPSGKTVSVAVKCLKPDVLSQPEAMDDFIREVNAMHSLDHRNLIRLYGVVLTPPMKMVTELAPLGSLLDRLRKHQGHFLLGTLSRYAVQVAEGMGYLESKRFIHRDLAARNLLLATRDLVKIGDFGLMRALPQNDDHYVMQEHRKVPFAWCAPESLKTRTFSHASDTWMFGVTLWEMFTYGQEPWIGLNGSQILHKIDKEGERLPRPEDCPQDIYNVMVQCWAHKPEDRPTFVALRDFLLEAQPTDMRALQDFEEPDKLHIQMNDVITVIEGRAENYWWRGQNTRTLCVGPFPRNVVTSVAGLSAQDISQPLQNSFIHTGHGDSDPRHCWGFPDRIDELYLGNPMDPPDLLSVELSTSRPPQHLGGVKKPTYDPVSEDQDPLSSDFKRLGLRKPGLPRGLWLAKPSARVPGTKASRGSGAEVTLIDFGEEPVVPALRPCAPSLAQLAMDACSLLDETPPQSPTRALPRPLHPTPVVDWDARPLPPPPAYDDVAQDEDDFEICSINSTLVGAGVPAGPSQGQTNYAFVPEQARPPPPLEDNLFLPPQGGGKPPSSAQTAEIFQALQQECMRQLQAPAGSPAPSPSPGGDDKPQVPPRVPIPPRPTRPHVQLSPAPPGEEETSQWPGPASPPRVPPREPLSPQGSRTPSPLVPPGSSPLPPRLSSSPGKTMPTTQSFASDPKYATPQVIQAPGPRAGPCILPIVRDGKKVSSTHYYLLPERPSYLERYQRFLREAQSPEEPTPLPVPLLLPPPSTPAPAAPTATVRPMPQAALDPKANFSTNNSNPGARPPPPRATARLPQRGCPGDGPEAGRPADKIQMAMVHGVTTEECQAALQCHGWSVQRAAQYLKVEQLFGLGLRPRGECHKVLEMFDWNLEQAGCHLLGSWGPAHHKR
Chain of Death-associated protein kinase 1 (Homo sapiens) (P53355 whole entry, looked up): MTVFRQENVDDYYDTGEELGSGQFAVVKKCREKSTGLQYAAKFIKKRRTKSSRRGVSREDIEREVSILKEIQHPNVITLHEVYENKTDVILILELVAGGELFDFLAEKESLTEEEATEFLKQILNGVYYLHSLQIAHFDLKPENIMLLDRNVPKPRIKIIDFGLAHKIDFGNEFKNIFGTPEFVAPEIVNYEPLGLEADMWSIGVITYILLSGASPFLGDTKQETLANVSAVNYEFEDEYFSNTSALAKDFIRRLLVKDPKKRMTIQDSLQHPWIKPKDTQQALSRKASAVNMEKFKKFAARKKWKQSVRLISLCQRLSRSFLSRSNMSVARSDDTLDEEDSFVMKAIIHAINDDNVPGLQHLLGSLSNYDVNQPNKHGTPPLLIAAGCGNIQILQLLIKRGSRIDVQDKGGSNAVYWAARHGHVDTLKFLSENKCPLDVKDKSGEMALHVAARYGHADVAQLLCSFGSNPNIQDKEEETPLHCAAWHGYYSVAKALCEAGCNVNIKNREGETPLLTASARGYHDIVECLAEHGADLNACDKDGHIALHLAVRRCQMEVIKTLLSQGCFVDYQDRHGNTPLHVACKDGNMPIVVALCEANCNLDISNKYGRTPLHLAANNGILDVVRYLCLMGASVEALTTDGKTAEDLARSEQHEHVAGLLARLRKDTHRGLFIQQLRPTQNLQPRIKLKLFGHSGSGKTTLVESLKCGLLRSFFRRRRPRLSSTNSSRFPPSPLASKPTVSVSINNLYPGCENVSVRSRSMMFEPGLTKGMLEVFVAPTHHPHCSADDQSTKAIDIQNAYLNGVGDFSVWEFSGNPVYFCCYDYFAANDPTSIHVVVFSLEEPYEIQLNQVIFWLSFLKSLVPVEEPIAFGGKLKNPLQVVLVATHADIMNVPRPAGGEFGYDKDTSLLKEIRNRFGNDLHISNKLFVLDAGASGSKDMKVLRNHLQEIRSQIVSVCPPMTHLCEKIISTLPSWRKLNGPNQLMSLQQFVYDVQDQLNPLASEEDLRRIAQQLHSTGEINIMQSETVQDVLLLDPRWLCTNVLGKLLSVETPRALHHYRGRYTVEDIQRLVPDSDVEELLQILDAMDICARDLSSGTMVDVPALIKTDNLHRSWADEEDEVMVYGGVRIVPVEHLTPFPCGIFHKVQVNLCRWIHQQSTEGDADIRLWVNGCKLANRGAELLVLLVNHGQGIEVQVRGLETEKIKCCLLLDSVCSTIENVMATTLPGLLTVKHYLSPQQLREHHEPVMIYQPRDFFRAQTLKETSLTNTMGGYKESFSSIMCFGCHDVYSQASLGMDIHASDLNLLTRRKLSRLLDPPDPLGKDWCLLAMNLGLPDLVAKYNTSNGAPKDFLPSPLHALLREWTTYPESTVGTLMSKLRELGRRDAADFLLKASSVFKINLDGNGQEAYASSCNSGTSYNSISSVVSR
Chain of Mast/stem cell growth factor receptor Kit (Homo sapiens), P10721 [V654A] (P10721 whole entry V654A): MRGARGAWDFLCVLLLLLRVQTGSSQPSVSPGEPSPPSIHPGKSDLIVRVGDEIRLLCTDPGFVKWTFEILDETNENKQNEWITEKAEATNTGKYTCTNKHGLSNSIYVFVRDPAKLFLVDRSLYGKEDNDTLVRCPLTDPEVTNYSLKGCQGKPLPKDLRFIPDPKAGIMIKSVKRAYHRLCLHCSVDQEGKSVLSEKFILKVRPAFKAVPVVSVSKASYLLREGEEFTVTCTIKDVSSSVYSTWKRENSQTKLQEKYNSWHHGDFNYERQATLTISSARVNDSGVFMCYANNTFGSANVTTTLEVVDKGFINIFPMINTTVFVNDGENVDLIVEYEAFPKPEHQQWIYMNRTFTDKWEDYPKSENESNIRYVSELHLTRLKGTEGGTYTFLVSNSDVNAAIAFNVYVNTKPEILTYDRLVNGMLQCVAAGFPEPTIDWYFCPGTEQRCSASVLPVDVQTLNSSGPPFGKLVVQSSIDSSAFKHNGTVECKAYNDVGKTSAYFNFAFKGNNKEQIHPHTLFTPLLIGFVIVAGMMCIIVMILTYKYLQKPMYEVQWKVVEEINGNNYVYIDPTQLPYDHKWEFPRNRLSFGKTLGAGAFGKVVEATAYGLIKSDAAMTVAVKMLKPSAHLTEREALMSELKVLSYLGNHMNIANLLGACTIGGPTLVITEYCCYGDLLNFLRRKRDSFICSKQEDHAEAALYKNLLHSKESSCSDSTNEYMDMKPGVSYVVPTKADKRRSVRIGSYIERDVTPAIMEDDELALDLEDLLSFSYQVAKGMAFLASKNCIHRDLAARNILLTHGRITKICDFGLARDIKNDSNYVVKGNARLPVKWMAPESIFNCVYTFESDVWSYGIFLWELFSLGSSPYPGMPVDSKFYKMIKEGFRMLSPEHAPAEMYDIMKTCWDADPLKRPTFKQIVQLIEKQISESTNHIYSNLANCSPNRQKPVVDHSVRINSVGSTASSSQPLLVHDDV
Chain of Tyrosine-protein kinase receptor UFO (Homo sapiens) (P30530 whole entry): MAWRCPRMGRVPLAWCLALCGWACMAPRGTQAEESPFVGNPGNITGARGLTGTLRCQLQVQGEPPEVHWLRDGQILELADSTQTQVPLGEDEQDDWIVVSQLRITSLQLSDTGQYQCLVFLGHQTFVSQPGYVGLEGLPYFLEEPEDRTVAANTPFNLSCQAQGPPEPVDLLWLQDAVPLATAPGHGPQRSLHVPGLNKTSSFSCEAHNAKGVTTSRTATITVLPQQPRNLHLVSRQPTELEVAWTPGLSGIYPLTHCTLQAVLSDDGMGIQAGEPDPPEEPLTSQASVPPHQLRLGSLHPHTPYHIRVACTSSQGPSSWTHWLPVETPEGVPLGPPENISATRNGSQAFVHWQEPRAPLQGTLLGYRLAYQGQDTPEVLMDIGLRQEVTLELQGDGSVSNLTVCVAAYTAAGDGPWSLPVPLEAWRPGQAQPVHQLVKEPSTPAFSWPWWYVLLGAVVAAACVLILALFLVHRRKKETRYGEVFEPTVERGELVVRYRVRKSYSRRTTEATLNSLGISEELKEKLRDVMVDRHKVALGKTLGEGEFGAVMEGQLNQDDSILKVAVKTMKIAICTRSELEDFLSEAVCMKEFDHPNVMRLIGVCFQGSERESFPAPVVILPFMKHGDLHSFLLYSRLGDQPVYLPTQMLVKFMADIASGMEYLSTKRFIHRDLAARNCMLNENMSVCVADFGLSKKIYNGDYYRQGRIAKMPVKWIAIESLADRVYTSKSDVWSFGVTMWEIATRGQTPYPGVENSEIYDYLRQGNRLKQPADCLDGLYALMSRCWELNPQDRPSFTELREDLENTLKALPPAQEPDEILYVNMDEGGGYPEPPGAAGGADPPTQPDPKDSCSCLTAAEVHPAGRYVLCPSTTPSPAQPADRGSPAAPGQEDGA
Chain of Serine/threonine-protein kinase 33 (Homo sapiens) (Q9BYT3 whole entry, looked up): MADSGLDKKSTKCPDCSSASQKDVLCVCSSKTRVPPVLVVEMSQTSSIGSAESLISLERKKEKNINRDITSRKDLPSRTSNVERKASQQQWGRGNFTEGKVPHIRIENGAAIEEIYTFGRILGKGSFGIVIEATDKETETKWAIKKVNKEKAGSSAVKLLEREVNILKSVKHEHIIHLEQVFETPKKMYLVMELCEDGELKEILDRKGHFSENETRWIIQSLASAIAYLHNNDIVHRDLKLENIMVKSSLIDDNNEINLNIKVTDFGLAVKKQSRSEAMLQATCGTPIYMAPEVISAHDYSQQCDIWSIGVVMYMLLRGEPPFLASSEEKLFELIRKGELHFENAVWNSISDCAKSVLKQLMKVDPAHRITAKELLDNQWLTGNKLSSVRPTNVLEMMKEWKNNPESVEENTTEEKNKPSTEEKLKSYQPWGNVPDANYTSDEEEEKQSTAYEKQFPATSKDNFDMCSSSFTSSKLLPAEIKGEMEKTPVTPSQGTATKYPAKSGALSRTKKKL

inhibition [1]: 8.5% | inhibition [2]: 1.6% | inhibition (Homo sapiens): 17.3% | inhibition [3]: -5.4% | inhibition [4]: -1.5% | inhibition [5]: 10.1% | inhibition [6]: 2.9% | inhibition [7]: 2.2% | inhibition [8]: 43.6% | inhibition [9]: 7% | inhibition [10]: 23.1% | inhibition [11]: 35.9% | inhibition [12]: 2.5% | inhibition [13]: 8.1% | inhibition [14]: 15.7% | inhibition [15]: 6.2% | inhibition [16]: 8.4% | inhibition [17]: 8.8% | inhibition [18]: 3.4% | inhibition [19]: 7.7% | inhibition [20]: -0.9% | inhibition [21]: 1.2% | inhibition [22]: -6.1% | inhibition [23]: 54% | inhibition [24]: -1.6% | inhibition [25]: 52.6% | inhibition [26]: 1.3% | inhibition [27]: 3.4% | inhibition [28]: 5.1% | inhibition [29]: -3.7% | inhibition [30]: 2.3% | inhibition [31]: 7.8% | inhibition [32]: 1.1% | inhibition [33]: -2.2% | inhibition [34]: 8.7% | inhibition [36]: 4.2% | inhibition [37]: -0.6% | inhibition [38]: -1.8% | inhibition [39]: 8.6% | inhibition [40]: 9.5% | inhibition [41]: 10.9% | inhibition [42]: 7.8%
SMILES: CC1(C)OCc2c(Nc3n[nH]c4ccccc34)nc(-c3cn[nH]c3)nc21
inhibition [35]: 2.2%
